Assay results reported in patent US6387909B1, “Thienopyranecarboxamide derivatives” (Recordati S.A. Chemical and Pharmaceutical Company, priority 1999, dated 2002).

Key:
[1] = target: T1, recombinant α1a-adrenoceptor (Homo sapiens, UniProt P35348); test: Radioligand binding ([3H]prazosin) to cloned α1a adrenoceptor; details: read-out: Affinity (Ki) α1a
T1 construct: expressed in transfected cells
T1 sequence (P35348 1-466): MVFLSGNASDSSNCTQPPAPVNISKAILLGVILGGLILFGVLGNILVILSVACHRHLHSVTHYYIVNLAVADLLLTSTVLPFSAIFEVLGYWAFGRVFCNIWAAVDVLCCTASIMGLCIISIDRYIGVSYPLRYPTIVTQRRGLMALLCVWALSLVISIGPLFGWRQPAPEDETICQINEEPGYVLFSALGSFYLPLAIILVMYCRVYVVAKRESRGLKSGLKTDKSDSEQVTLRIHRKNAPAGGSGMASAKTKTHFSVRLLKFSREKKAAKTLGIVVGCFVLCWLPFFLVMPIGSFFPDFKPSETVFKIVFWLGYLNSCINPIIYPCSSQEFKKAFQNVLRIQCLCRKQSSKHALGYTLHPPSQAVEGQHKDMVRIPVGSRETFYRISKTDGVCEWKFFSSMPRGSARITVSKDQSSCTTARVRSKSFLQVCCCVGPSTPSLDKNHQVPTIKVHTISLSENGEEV
Experimental: (§1) Determination of affinity for cloned subtypes of the α1-adrenoceptor was performed in membranes from cells transfected by electroporation with DNA expressing the genes encoding each α1-adrenoceptor subtype.
(§2) Non-specific binding was determined in the presence of 10 μM phentolamine. Incubation was stopped by addition of ice-cold Tris buffer and rapid filtration through Schleicher & Schuell GF52 filters that had been pretreated with 0.2%-polyethyleneimine.
(§3) Data were expressed as mean of Ki.

[2] = target: T2, recombinant α1b-adrenoceptor (Homo sapiens, UniProt P35368); test: Radioligand binding ([3H]prazosin) to cloned α1b adrenoceptor; details: read-out: Affinity (Ki) α1b
T2 construct: expressed in transfected cells
T2 sequence (P35368 1-520): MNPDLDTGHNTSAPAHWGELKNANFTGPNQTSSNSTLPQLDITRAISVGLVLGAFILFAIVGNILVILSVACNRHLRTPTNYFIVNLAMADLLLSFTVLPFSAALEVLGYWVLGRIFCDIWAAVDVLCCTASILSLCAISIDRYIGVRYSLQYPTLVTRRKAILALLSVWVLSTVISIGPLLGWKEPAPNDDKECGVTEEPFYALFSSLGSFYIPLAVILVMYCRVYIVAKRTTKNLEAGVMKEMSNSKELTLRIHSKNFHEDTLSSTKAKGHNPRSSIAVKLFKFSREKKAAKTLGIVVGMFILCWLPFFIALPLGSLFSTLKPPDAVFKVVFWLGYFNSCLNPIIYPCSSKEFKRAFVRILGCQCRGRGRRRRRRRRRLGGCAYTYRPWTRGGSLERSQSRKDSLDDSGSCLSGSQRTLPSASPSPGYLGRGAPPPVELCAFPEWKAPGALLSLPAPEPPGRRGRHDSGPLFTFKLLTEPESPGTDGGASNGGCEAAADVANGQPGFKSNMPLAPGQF
Experimental: as §1, §2, §3

[3] = target: T3, human 5-HT1A-serotoninergic receptor (Homo sapiens, UniProt P08908); test: Radioligand binding ([3H]8-OH-DPAT) to cloned 5-HT1A receptor in HeLa cell membranes; details: read-out: Affinity (Ki) 5-HT1A
T3 construct: expressed in transfected cells; host or cells: HeLa
T3 sequence (P08908 1-422): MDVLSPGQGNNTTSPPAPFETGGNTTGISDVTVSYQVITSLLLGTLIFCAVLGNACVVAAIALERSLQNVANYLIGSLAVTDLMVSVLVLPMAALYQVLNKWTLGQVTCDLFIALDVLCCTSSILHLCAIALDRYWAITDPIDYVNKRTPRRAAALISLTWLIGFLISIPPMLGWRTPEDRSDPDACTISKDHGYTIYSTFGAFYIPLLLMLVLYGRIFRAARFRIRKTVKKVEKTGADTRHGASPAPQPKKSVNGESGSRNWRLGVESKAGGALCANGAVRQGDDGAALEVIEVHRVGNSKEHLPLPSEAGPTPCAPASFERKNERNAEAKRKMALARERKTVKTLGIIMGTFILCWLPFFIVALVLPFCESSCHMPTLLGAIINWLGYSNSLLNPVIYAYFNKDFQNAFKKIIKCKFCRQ
Experimental: HeLa cells were grown as monolayers in Dulbecco's modified Eagle's medium (DMEM), supplemented with 10% fetal calf serum and gentamicin (100 μg/mL), at 37° C. in 5% CO2. The cells were detached from the growth flask at 95% confluence by a cell scraper and were lysed in a buffer containing ice cold 5 mM Tris, 5 mM EDTA (pH 7.4). The homogenates were centrifuged at 40,000×g for 20 minutes and the membranes were resuspended in a small volume of ice-cold buffer containing 5 mM Tris and 5 mM, EDTA (pH 7.4), and immediately frozen and stored at −70° C. until use.
Non-specific binding was determined in the presence of 10 μM 5-HT. Incubation was stopped by addition of ice-cold Tris buffer and rapid filtration through Schleicher & Schuell GF52 filters that had been pretreated with 0.2%-polyethyleneimine.
as §3

[4] = system: prostatic urethral contractions induced by noradrenaline; test: Urethral contractions induced by noradrenaline injection in anaesthetized dogs after intravenous administration; type: in vivo; details: dog, i.v.
Experimental: (§4) The experiments were performed according to the method of Imagawa et al. (J. Pharmacol. Methods, 22:103-111, 1989), with substantial modifications, as follows: adult male beagle dogs, weighing 8-10 kg, were anaesthetized with pentobarbital sodium (30 mg/kg i.v. and 2 mg/kg/h i.v.), intubated and spontaneously ventilated with room air. In order to monitor systemic blood pressure (BP), a polyethylene (PE) catheter was introduced into the aortic arch through the left femoral artery. A collateral of the left femoral vein was cannulated for infusion of anaesthetic, and the right femoral vein was cannulated for administration of compounds. For intraarterial (i.a.) injection of noradrenaline (NA), a PE catheter was introduced into the lower portion of the abdominal aorta via the right external iliac artery. Through such procedure, NA was selectively distributed to the lower urinary tract. A paramedian vertical suprapubic incision extending from the base of the pelvis to the mid-abdominal region was made and the bladder and the prostate were exposed. The bladder was manually emptied with a syringe. Prostatic urethral pressure was monitored with a Mikro-tip catheter (5F) introduced into the bladder via the external urethral meatus, and withdrawn until the pressure transducer was positioned in the prostatic region of the urethra. A ligature was secured between the neck of the bladder and urethra to isolate the response of the latter and to avoid any interaction with the bladder. Another ligature was put around the Mikro-tip catheter at the external meatus, to secure the catheter itself.
(§5) After a stabilizing period following the surgical procedure (30 minutes), in which arterial and prostatic urethral pressures were continuously monitored as basal values, i.a. administration of NA was made at intervals of 20 minutes.
(§6) The NA doses were chosen to produce an increase of at least 100% in urethral pressure. The test compounds were administered intravenously in a cumulative manner with intervals of 15-20 minutes between administrations. […]

diastolic blood pressure = test: Blood pressure in anaesthetized dogs after intravenous administration; type: in vivo; details: dog, i.v.
Experimental: as §4, §5, §6

SMILES: COc1ccccc1N1CCN(CCCNC(=O)c2csc3c(=O)cc(-c4ccccc4)oc23)CC1 [Example 2, N-{3-[4-(2-Methoxyphenyl)-1-piperazinyl]propyl}-7-oxo-5-phenyl-7H-thieno[3,2-b]pyran-3-carboxamide]
- Ki [1]: 0.1 nM
- Ki [2]: 7.52 nM
- Ki [3]: 4.48 nM
- UC ID50 NA (dose inhibiting by 50% the urethral contractions induced by noradrenaline) [4]: 0.0018 mg/kg
- DBP ED25 (dose inducing a 25% decrease in diastolic blood pressure) (diastolic blood pressure): 0.0355 mg/kg

SMILES: O=C(NCCCN1CCN(c2ccccc2OCC(F)(F)F)CC1)c1csc2c(=O)cc(-c3ccccc3)oc12 [Example 5, 7-Oxo-5-phenyl-N-{3-[4-[2-(2,2,2-trifluoroethoxy)phenyl]-1-piperazinyl]propyl}-7H-thieno[3,2-b]pyran-3-carboxamide]
- Ki [1]: 0.045 nM
- Ki [2]: 4.34 nM
- Ki [3]: 7.59 nM
- UC ID50 NA (dose inhibiting by 50% the urethral contractions induced by noradrenaline) [4]: 0.0027 mg/kg
- DBP ED25 (dose inducing a 25% decrease in diastolic blood pressure) (diastolic blood pressure): >1 mg/kg
